Common to all, as to format: biochemical
The target of one test is ADAM17 (TACE) (Homo sapiens, UniProt P78536). As to the kind of experiment: TACE fluorometric inhibition assay (Enzo kit BML-AK310). To be noted: quenched fluorogenic peptide, ex/em 320/420 nm; read-out: TACE IC50 class. The method in brief:
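Kit-based TACE assay run per manufacturer's protocol, using quenched fluorogenic peptide Mca-PLAQAV-Dpa-RSSSR-NH2 whose cleavage raises Mca fluorescence. Signal read at ex/em 320/420 nm; IC50 (nM) derived from inhibition curves of normalized values.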

The target in a further test is T1, MMP13 (Homo sapiens, UniProt P45452).
T1 construct: purchased Enzo Life Sciences, Inc. BML-AK412
As to the kind of experiment: MMP-13 colorimetric inhibition assay (Enzo kit BML-AK412). To be noted: thiopeptide substrate, absorbance 415 nm; read-out: MMP 13 IC50 class. Summed up: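 Thiopeptide chromogenic substrate (Ac-PLG-[2-mercapto-4-methylpentanoyl]-LG-OC2H5); MMP-13 hydrolysis of the thioester yields a thiol that reacts with DTNB, read at 415 nm. IC50 values (nM) derived from inhibition curves of normalized data.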

The target in another test is MMP9 (Homo sapiens, UniProt P14780). As to the kind of experiment: MMP-9 colorimetric inhibition assay (Enzo kit BML-AK410). Conditions: thiopeptide substrate, absorbance 415 nm; read-out: MMP 9 IC50 class. Summed up: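 Colorimetric thioester-substrate assay: hydrolysis of Ac-PLG-[2-mercapto-4-methylpentanoyl]-LG-OC2H5 frees a thiol that reacts with DTNB, read at 415 nm. Run per kit protocol. IC50 (nM) taken from inhibition curves of normalized values.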
Sequence of MMP9 (P14780 94-707): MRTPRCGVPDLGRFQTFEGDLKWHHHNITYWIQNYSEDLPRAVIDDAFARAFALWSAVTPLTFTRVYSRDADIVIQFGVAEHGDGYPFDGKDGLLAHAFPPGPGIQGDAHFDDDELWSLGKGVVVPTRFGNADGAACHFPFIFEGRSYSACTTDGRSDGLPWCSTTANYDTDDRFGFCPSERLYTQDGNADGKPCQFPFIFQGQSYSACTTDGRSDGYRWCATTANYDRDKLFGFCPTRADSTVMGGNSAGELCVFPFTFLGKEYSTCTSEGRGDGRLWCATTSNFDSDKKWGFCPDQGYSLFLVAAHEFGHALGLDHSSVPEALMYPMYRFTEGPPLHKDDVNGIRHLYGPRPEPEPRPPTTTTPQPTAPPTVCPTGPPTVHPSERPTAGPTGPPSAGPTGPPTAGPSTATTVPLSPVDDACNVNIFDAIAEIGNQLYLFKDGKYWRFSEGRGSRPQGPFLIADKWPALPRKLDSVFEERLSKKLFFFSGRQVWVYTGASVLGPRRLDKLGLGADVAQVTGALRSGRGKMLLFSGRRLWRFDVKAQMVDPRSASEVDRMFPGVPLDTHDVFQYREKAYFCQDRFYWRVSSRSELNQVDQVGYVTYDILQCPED

The target of another test is T2, MMP1 (Homo sapiens, UniProt P03956).
T2 sequence (P03956 100-269 limits assumed): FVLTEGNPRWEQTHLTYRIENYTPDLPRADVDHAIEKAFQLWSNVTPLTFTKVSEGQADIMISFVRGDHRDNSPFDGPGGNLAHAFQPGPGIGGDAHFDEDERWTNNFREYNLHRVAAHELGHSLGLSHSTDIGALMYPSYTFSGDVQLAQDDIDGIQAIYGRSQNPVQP
As to the kind of experiment: MMP-1 colorimetric inhibition assay (Enzo kit BML-AK404). To be noted: thiopeptide substrate, absorbance 415 nm; read-out: MMP 1 IC50 class. Summed up:
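Colorimetric kit run per manufacturer protocol. MMP-1 cleaves a thiopeptide substrate (Ac-PLG-[2-mercapto-4-methylpentanoyl]-LG-OC2H5); released thiol reacts with DTNB, monitored at 415 nm. IC50 (nM) from inhibition curves of normalized values.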

Another test has as its target T3, MMP2 (Homo sapiens, UniProt P08253).
T3 sequence (P08253 110-660): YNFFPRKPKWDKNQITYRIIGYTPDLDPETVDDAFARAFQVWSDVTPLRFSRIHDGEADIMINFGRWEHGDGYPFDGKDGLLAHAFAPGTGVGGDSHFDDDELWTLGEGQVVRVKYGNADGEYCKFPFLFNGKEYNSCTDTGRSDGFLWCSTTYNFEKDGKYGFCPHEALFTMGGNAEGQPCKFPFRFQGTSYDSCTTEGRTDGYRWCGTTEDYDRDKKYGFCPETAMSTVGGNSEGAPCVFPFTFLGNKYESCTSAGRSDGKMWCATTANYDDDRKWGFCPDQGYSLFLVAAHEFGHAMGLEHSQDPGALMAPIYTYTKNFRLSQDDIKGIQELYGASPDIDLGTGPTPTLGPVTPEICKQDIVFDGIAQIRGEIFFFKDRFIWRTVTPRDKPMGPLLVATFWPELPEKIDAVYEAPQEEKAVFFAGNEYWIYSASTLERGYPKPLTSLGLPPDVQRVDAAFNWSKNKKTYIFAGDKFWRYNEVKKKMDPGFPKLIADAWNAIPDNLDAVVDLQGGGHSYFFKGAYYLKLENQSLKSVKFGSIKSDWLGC
As to the kind of experiment: MMP-2 colorimetric inhibition assay (Enzo kit BML-AK408). To be noted: thiopeptide substrate, absorbance 415 nm; read-out: MMP 2 IC50 class. Summed up: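 Cleavage of the thiopeptide Ac-PLG-[2-mercapto-4-methylpentanoyl]-LG-OC2H5 releases a sulfhydryl that reacts with DTNB, read at 415 nm per the kit protocol. IC50 values (nM) come from inhibition curves of normalized data.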

Some results are limits rather than exact numbers.

Sequence of ADAM17 (TACE) (P78536 215-477 limits assumed): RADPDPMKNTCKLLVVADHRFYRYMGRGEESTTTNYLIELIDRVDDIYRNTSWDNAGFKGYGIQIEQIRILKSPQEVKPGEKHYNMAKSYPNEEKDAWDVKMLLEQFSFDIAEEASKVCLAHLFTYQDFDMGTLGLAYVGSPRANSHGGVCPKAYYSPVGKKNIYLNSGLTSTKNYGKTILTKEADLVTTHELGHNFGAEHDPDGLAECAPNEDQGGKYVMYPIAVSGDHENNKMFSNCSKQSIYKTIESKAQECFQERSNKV

With `O=C(NO)[C@H]1[C@@H]2CC[C@H](CN1S(=O)(=O)c1ccc(Oc3ccc(F)cc3)nc1)N2C(=O)N1CCOCC1` [Example 68, (1S,2R,5R)-3-((6-(4-fluorophenoxy)pyridin-3-yl)sulfonyl)-N-hydroxy-8-(morpholine-4-carbonyl)-3,8-diazabicyclo[3.2.1]octane-2-carboxamide], the half-maximal inhibitory concentration (IC50) is 1000 to 10000 nM at ADAM17 (TACE); under 50 nM on MMP13; 50 to 1000 nM on MMP9; 1000 to 10000 nM at MMP1; under 50 nM at MMP2.

`COCCOC(=O)N1[C@@H]2CC[C@H]1[C@H](C(=O)NO)N(S(=O)(=O)c1ccc(Oc3cnn(-c4ccc(F)cc4)c3)nc1)C2` [Example 40, 2-methoxyethyl (1S,2R,5R)-3-((6-((1-(4-fluorophenyl)-1H-pyrazol-4-yl)oxy)pyridin-3-yl)sulfonyl)-2-(hydroxycarbamoyl)-3,8-diazabicyclo-[3.2.1]octane-8-carboxylate]: the IC50 on ADAM17 (TACE) was 50 to 1000 nM; at MMP13, under 50 nM; on MMP9 it was under 50 nM; at MMP1, 50 to 1000 nM; on MMP2, under 50 nM.

For the compound `COCCOC(=O)N1[C@@H]2CC[C@H]1[C@H](C(=O)NO)N(S(=O)(=O)c1ccc(Oc3nc4ccccc4o3)c(F)c1)C2` [Example 79, 2-methoxyethyl (1S,2R,5R)-3-((4-(benzo[d]oxazol-2-yloxy)-3-fluorophenyl)sulfonyl)-2-(hydroxycarbamoyl)-3,8-diazabicyclo[3.2.1]octane-8-carboxylate], the half-inhibitory concentration (IC50) at ADAM17 (TACE) was 1000 to 10000 nM; on MMP13, 50 to 1000 nM; at MMP9, 1000 to 10000 nM; at MMP1, over 10000 nM; on MMP2 it was 50 to 1000 nM.

On to `COCCOC(=O)N1[C@@H]2CC[C@H]1[C@H](C(=O)NO)N(S(=O)(=O)c1ccc(OC3CCOCC3)nc1)C2` [Example 13, 2-methoxyethyl (1S,2R,5R)-2-(hydroxycarbamoyl)-3-((6-((tetrahydro-2H-pyran-4-yl)oxy)-pyridin-3-yl)sulfonyl)-3,8-diazabicyclo[3.2.1]-octane-8-carboxylate], for which the half-maximal inhibitory concentration (IC50) at ADAM17 (TACE) is 1000 to 10000 nM; at MMP13, under 50 nM; on MMP9, under 50 nM; on MMP1, 1000 to 10000 nM; at MMP2 it was 50 to 1000 nM.

`CC(=O)N1[C@@H]2CC[C@H]1[C@H](C(=O)NO)N(S(=O)(=O)N1CCC(Oc3ccnc(C(F)(F)F)c3)CC1)C2` [Example 64, (1S,2R,5R)-8-acetyl-N-hydroxy-3-((4-((2-(trifluoromethyl)-pyridin-4-yl)oxy)-piperidin-1-yl)-sulfonyl)-3,8-diazabicyclo[3.2.1]-octane-2-carboxamide]: the IC50 at ADAM17 (TACE) fell in the range of 1000 to 10000 nM; at MMP13, 50 to 1000 nM; at MMP9, 50 to 1000 nM; at MMP1, 1000 to 10000 nM; at MMP2 it was 50 to 1000 nM.

Consider `O=C(NO)[C@H]1[C@@H]2CC[C@H](CN1S(=O)(=O)c1ccc(Oc3ccc(F)cc3)nc1)N2CC(=O)N1CCCC1` [Example 52, (1S,2R,5R)-3-((6-(4-fluorophenoxy)pyridin-3-yl)sulfonyl)-N-hydroxy-8-(2-oxo-2-(pyrrolidin-1-yl)ethyl)-3,8-diazabicyclo[3.2.1]octane-2-carboxamide], for which the IC50 was over 10000 nM on ADAM17 (TACE); under 50 nM on MMP13; 50 to 1000 nM at MMP9; 1000 to 10000 nM on MMP1; under 50 nM on MMP2.

For the compound `COCCOC(=O)N1[C@@H]2CC[C@H]1[C@H](C(=O)NO)N(S(=O)(=O)c1ccc(Oc3cncc(F)c3)nc1)C2` [Example 23, 2-methoxyethyl (1S,2R,5R)-3-((6-((5-fluoropyridin-3-yl)oxy)pyridin-3-yl)-sulfonyl)-2-(hydroxycarbamoyl)-3,8-diaza-bicyclo[3.2.1]octane-8-carboxylate], the concentration for half-maximal inhibition (IC50) at ADAM17 (TACE) was 1000 to 10000 nM; on MMP13, 50 to 1000 nM; on MMP9 it was 50 to 1000 nM; on MMP1, 50 to 1000 nM; at MMP2, under 50 nM.

As to `CN1CCN(C(=O)N2[C@@H]3CC[C@H]2[C@H](C(=O)NO)N(S(=O)(=O)c2ccc(Oc4ccc(F)cc4)nc2)C3)CC1` [Example 69, (1S,2R,5R)-3-((6-(4-fluorophenoxy)pyridin-3-yl)sulfonyl)-N-hydroxy-8-(4-methyl-piperazine-1-carbonyl)-3,8-diazabicyclo-[3.2.1]octane-2-carboxamide], the IC50 is 1000 to 10000 nM on ADAM17 (TACE); 50 to 1000 nM at MMP13; 50 to 1000 nM on MMP9; 1000 to 10000 nM at MMP1; under 50 nM on MMP2.

Consider `COCCOC(=O)N1[C@@H]2CC[C@H]1[C@H](C(=O)NO)N(S(=O)(=O)c1ccc(Oc3ccc(C(C)(C)O)cc3)nc1)C2` [Example 26, 2-methoxyethyl (1S,2R,5R)-2-(hydroxycarbamoyl)-3-((6-(4-(2-hydroxy-propan-2-yl)-phenoxy)pyridin-3-yl)sulfonyl)-3,8-diazabicyclo[3.2.1]-octane-8-carboxylate], for which the IC50 at ADAM17 (TACE) is 1000 to 10000 nM; at MMP13, 50 to 1000 nM; on MMP9, 50 to 1000 nM; on MMP1 it was over 10000 nM; at MMP2, under 50 nM.

As for `COCCOC(=O)N1[C@@H]2CC[C@H]1[C@H](C(=O)NO)N(S(=O)(=O)N1CCN(Cc3ccc(Cl)cc3)CC1)C2` [Example 76, 2-methoxyethyl (1S,2R,5R)-3-((4-(4-chlorobenzyl)piperazin-1-yl)sulfonyl)-2-(hydroxycarbamoyl)-3,8-diazabicyclo[3.2.1]octane-8-carboxylate], the IC50 at ADAM17 (TACE) is 1000 to 10000 nM; on MMP13 it was 50 to 1000 nM; at MMP9 it was 50 to 1000 nM; on MMP1, over 10000 nM; on MMP2 it was 50 to 1000 nM.

Turning to `COCCOC(=O)N1[C@@H]2CC[C@H]1[C@H](C(=O)NO)N(S(=O)(=O)c1ccc(Oc3cncc(Cl)c3)nc1)C2` [Example 15, (1S,2R,5R)-2-methoxyethyl 3-((6-((5-chloropyridin-3-yl)oxy)pyridin-3-yl)-sulfonyl)-2-(hydroxycarbamoyl)-3,8-diazabicyclo[3.2.1]-octane-8-carboxylate], the half-inhibitory concentration (IC50) on ADAM17 (TACE) lay within 50 to 1000 nM; on MMP13, 50 to 1000 nM; on MMP9, 50 to 1000 nM; on MMP1, 1000 to 10000 nM; on MMP2, 50 to 1000 nM.
